Reference: patent US20230114728A1 (Venatorx Pharmaceuticals, Inc., priority 2019, published 2023)
In brackets after ≈: the same amount, converted by molar mass.

Assays:
P. aeruginosa CDC-0110 = assay: Broth microdilution MIC in iron-depleted CAMHB (IDM); assay type: cell-based; conditions: Pseudomonas aeruginosa, CDC0110, read-out: Minimum Inhibitory Concentration, P. aeruginosa CDC-0110
In short: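 MIC is the lowest well showing no visible growth after 16-20 h at 37 °C, starting from 2-8×10^5 CFU/mL in 2-fold serial compound dilutions. Medium: cation-adjusted Mueller Hinton broth iron-depleted with Chelex 100, supplemented back with Ca, Mg and Zn, pH 7.3; CLSI protocol.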

A. baumannii PBP1a = A. baumannii PBP1a (Acinetobacter baumannii, UniProt A0ABX6CK30); assay: Bocillin-FL fluorescence polarization competition binding assay, A. baumannii PBP1a; conditions: fluorescence polarization competition binding assay using Bocillin-FL; column 1; read-out: A. baumannii PBP1a Potency
Description: Example I: Experimental Method for Penicillin-Binding Protein Binding Assays with Bocillin-FL Via Fluorescence Polarization
To determine the ability of boronic acid-based test PBP inhibitors to bind Penicillin Binding Proteins (PBPs), Bocillin-FL (fluorescently-labeled penicillin V; ThermoFisher Scientific) was used in a fluorescence polarization (FP) competition binding assay to assess inhibitor binding to PBP2, PBP3 or PBP4 from Escherichia coli (K12), PBP3 from Pseudomonas aeruginosa (PA01), PBP1a, PBP2 and PBP3 from Acinetobacter baumannii (ATCC 19606), and PBP2 from Neiserria gonorrheae (FA19). PBPs were cloned and purified as described previously (E. coli PBPs, King, D. T, et al., ACS Infectious Diseases 2015, 1, 175-184; P. aeruginosa PBP3, Han et. al., PNAS 2010, 107 (51), 22002-22007; A. baumannii PBPs, Penwell et. al., Antimicrob. Agents Chemother. 2015, 59 (3), 1680-1689; N. gonorrhoeae PBP2, Singh et. al., J Biol. Chem. 2019, 294 (38), 14020-14032). To establish assay conditions for competition binding, enzyme titration/saturation binding experiments were initially performed. Bocillin-FL was prepared at 0.2 μM in a buffer comprised of 50 mM Hepes (pH 8.0), 300 mM NaCl and 5% (v/v) glycerol for reactions with E. coli, P. aeruginosa and N. gonorrhoeae PBPs, and 25 mM Tris (pH 8.0), 200 mM NaCl and 10% (v/v) glycerol and 0.005% (v/v) Tween 20 for reactions with A. baumannii PBPs. Saturation binding was performed by mixing 40 μl of PBP solutions ranging in concentrations from 0-24 μM with 40 μl of the 0.2 μM Bocillin-FL solution, in individual wells of a black 384-well microplate. FP was measured immediately upon mixing (Excitation, 490 nm; Emission, 520 nm; g-factor, 0.96), using a Cytation3 (BioTek) microplate reader and measured continuously for up to 120 minutes. […] The competition binding assay (80 μl final volume) was validated using beta-lactams and PBPs at final concentrations of: 1.5 μM, E. coli PBP3; 0.75 μM, P. aeruginosa PBP3; 1 μM A. baumannii PBP1a; 2.5 μM A. baumannii PBP2; 0.2 μM A. baumannii PBP3; and […] N. gonorrhoeae PBP2. Bocillin-FL was at 0.1 μM (0.05 μM with A. baumannii PBP1a) and beta-lactam concentrations ranged from 0-1000 μM. […] Bocillin-FL was added and the FP immediately measured for up to 60 minutes (90 minutes for E. coli PBP2). […] The beta-lactam potency was reported as the concentration of beta-lactam required to reduce the amount of PBP bound-Bocillin-FL by 50% (EC50). […] Binding assays for boronic acid PBP inhibitors were performed in an identical fashion for the respective PBPs

[1] = system: A. baumannii CDC-0045 producing TEM-1D, OXA-23, and OXA-69; assay: Broth microdilution MIC in iron-depleted CAMHB (IDM); assay type: cell-based; conditions: Acinetobacter baumannii, read-out: Minimum Inhibitory Concentration, CDC-0045

A. baumannii PBP1a, sequence (A0ABX6CK30 entry or part of it): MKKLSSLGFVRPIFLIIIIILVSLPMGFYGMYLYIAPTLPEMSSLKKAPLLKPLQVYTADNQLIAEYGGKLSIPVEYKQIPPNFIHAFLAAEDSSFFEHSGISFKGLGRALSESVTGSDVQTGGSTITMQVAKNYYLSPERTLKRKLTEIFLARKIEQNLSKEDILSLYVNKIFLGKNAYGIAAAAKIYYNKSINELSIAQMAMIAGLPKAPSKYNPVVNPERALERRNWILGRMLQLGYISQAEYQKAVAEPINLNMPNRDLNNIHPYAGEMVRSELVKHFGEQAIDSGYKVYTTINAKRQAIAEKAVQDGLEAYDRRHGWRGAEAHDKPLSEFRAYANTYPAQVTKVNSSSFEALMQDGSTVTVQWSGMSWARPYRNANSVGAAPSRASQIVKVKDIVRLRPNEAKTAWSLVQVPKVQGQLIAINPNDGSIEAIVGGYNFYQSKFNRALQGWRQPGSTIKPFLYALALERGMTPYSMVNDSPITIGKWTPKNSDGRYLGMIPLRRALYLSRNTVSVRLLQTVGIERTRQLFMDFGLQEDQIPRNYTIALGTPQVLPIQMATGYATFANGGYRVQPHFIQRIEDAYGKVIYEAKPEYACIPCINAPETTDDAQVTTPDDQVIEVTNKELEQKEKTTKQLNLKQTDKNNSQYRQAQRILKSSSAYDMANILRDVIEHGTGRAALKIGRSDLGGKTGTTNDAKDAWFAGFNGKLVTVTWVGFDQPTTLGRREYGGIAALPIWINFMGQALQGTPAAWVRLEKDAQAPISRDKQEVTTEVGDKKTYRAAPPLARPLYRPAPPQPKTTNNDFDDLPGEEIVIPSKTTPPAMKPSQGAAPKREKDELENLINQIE

Structure (SMILES): NCCN1CCN(C(=O)N[C@@H](C(=O)N[C@H]2Cc3ccc(F)c(C(=O)O)c3OB2O)c2c(F)cc(O)c(O)c2Cl)C(=O)C1=O (single isomer, unassigned) [Example 26]
- MIC (P. aeruginosa CDC-0110): 0.5 to 1 µg/mL (≈ 0.799 to 1.6 µM)
- EC50 (A. baumannii PBP1a): > 100 µM
- MIC [1]: 0.5 to 1 µg/mL (≈ 0.799 to 1.6 µM)

Structure (SMILES): NCCCN1CCN(C(=O)N[C@@H](C(=O)N[C@H]2Cc3ccc(F)c(C(=O)O)c3OB2O)c2c(F)cc(O)c(O)c2Cl)C(=O)C1=O (single isomer, unassigned) [Example 27]
- MIC (P. aeruginosa CDC-0110): 2 to 4 µg/mL (≈ 3.13 to 6.25 µM)
- EC50 (A. baumannii PBP1a): > 100 µM
- MIC [1]: 0.5 to 1 µg/mL (≈ 0.782 to 1.56 µM)

Structure (SMILES): O=C(O)c1c(F)ccc2c1OB(O)[C@@H](NC(=O)[C@H](NC(=O)N1CCNC1=O)c1c(F)cc(O)c(O)c1Cl)C2 (single isomer, unassigned) [Example 34]
- MIC (P. aeruginosa CDC-0110): 0.5 to 1 µg/mL (≈ 0.901 to 1.8 µM)
- EC50 (A. baumannii PBP1a): > 100 µM
- MIC [1]: 0.25 µg/mL (≈ 0.451 µM)

Structure (SMILES): NCCN1CCN(C(=O)N[C@@H](C(=O)N[C@H]2Cc3ccc(F)c(C(=O)O)c3OB2O)c2c(F)cc(O)c(O)c2F)C(=O)C1=O (single isomer, unassigned) [Example 40]
- MIC (P. aeruginosa CDC-0110): 2 to 4 µg/mL (≈ 3.28 to 6.57 µM)
- EC50 (A. baumannii PBP1a): > 100 µM
- MIC [1]: 2 to 4 µg/mL (≈ 3.28 to 6.57 µM)

Structure (SMILES): O=C(NC(C(=O)N[C@H]1Cc2ccc(F)c(C(=O)O)c2OB1O)c1ncc(O)cc1F)c1c(F)cc(O)c(O)c1Cl (stereo partly drawn) [Example 10, (3R)-3-(2-(2-chloro-6-fluoro-3,4-dihydroxybenzamido)-2-(3-fluoro-5-hydroxypyridin-2-yl)acetamido)-7-fluoro-2-hydroxy-3,4-dihydro-2H-benzo[e][1,2]oxaborinine-8-carboxylic acid]
- MIC (P. aeruginosa CDC-0110): 0.5 to 1 µg/mL (≈ 0.86 to 1.72 µM)
- MIC [1]: 32 to 64 µg/mL (≈ 55 to 110 µM)

Structure (SMILES): CS(=O)(=O)N1CCN(C(=O)NC(C(=O)N[C@H]2Cc3ccc(F)c(C(=O)O)c3OB2O)c2ccc(O)c(O)c2Cl)C1=O (stereo partly drawn) [Example 23, (3R)-3-(2-(2-chloro-3,4-dihydroxyphenyl)-2-(3-(methylsulfonyl)-2-oxoimidazolidine-1-carboxamido)acetamido)-7-fluoro-2-hydroxy-3,4-dihydro-2H-benzo[e][1,2]oxaborinine-8-carboxylic acid]
- MIC (P. aeruginosa CDC-0110): 2 to 4 µg/mL (≈ 3.25 to 6.51 µM)
- EC50 (A. baumannii PBP1a): > 100 µM
- MIC [1]: 0.5 to 1 µg/mL (≈ 0.813 to 1.63 µM)

Structure (SMILES): NC(C(=O)N[C@H]1Cc2ccc(F)c(C(=O)O)c2OB1O)c1c(F)cc(O)c(O)c1Cl (stereo partly drawn) [Example 25, (3R)-3-(2-amino-2-(2-chloro-6-fluoro-3,4-dihydroxyphenyl)acetamido)-7-fluoro-2-hydroxy-3,4-dihydro-2H-benzo[e][1,2]oxaborinine-8-carboxylic acid]
- MIC (P. aeruginosa CDC-0110): 32 to 64 µg/mL (≈ 72.3 to 145 µM)
- MIC [1]: 32 to 64 µg/mL (≈ 72.3 to 145 µM)

Structure (SMILES): CCN1CCN(C(=O)NC(C(=O)N[C@H]2Cc3ccc(F)c(C(=O)O)c3OB2O)c2c(F)cc(O)c(O)c2F)C(=O)C1=O (stereo partly drawn) [Example 36, (3R)-3-(2-(2,6-difluoro-3,4-dihydroxyphenyl)-2-(4-ethyl-2,3-dioxopiperazine-1-carboxamido)acetamido)-7-fluoro-2-hydroxy-3,4-dihydro-2H-benzo[e][1,2]oxaborinine-8-carboxylic acid]
- MIC (P. aeruginosa CDC-0110): 0.5 to 1 µg/mL (≈ 0.841 to 1.68 µM)
- MIC [1]: 0.25 µg/mL (≈ 0.421 µM)

Structure (SMILES): O=C(O)c1c(F)ccc2c1OB(O)[C@@H](NC(=O)C(NC(=O)N1CCN(CCF)C(=O)C1=O)c1c(F)cc(O)c(O)c1F)C2 (stereo partly drawn) [Example 37, (3R)-3-(2-(2,6-difluoro-3,4-dihydroxyphenyl)-2-(4-(2-fluoroethyl)-2,3-dioxopiperazine-1-carboxamido)acetamido)-7-fluoro-2-hydroxy-3,4-dihydro-2H-benzo[e][1,2]oxaborinine-8-carboxylic acid]
- MIC (P. aeruginosa CDC-0110): 0.5 to 1 µg/mL (≈ 0.817 to 1.63 µM)
- MIC [1]: 0.5 to 1 µg/mL (≈ 0.817 to 1.63 µM)

Structure (SMILES): O=C(O)c1c(F)ccc2c1OB(O)[C@@H](NC(=O)C(NC(=O)N1CCN(CCBr)C(=O)C1=O)c1c(F)cc(O)c(O)c1F)C2 (stereo partly drawn) [Example 38, (3R)-3-(2-(4-(2-bromoethyl)-2,3-dioxopiperazine-1-carboxamido)-2-(2,6-difluoro-3,4-dihydroxyphenyl)acetamido)-7-fluoro-2-hydroxy-3,4-dihydro-2H-benzo[e][1,2]oxaborinine-8-carboxylic acid]
- MIC (P. aeruginosa CDC-0110): 0.5 to 1 µg/mL (≈ 0.743 to 1.49 µM)
- MIC [1]: 0.5 to 1 µg/mL (≈ 0.743 to 1.49 µM)

Structure (SMILES): CCN1CCN(C(=O)NC(C(=O)N[C@H]2Cc3ccc(F)c(C(=O)O)c3OB2O)c2cc(F)c(O)c(O)c2Cl)C(=O)C1=O (stereo partly drawn) [Example 42, (3R)-3-(2-(2-chloro-5-fluoro-3,4-dihydroxyphenyl)-2-(4-ethyl-2,3-dioxopiperazine-1-carboxamido)acetamido)-7-fluoro-2-hydroxy-3,4-dihydro-2H-benzo[e][1,2]oxaborinine-8-carboxylic acid]
- MIC (P. aeruginosa CDC-0110): 0.25 µg/mL (≈ 0.409 µM)
- MIC [1]: 0.25 µg/mL (≈ 0.409 µM)

Structure (SMILES): O=C(O)c1ccc(C(NC(=O)c2c(F)cc(O)c(O)c2Cl)C(=O)N[C@H]2Cc3ccc(F)c(C(=O)O)c3OB2O)cc1F (stereo partly drawn) [Example 71, (3R)-3-(2-(4-carboxy-3-fluorophenyl)-2-(2-chloro-6-fluoro-3,4-dihydroxybenzamido)acetamido)-7-fluoro-2-hydroxy-3,4-dihydro-2H-benzo[e][1,2]oxaborinine-8-carboxylic acid]
- MIC (P. aeruginosa CDC-0110): 0.25 µg/mL (≈ 0.411 µM)
- MIC [1]: 32 to 64 µg/mL (≈ 52.6 to 105 µM)

Structure (SMILES): CCN1CCN(C(=O)NC(C(=O)N[C@H]2Cc3cccc(C(=O)O)c3OB2O)c2cccc(NC(=O)c3ccc(O)c(O)c3Cl)c2)C(=O)C1=O (stereo partly drawn) [Example 73, (3R)-3-(2-(3-(2-chloro-3,4-dihydroxybenzamido)phenyl)-2-(4-ethyl-2,3-dioxopiperazine-1-carboxamido)acetamido)-2-hydroxy-3,4-dihydro-2H-benzo[e][1,2]oxaborinine-8-carboxylic acid]
- MIC (P. aeruginosa CDC-0110): 0.5 to 1 µg/mL (≈ 0.721 to 1.44 µM)
- MIC [1]: 32 to 64 µg/mL (≈ 46.1 to 92.2 µM)

Structure (SMILES): CCN1CCN(C(=O)NC(C(=O)N[C@H]2Cc3cccc(C(=O)O)c3OB2O)c2ccc(O)c(NC(=O)c3ccc(O)c(O)c3Cl)c2)C(=O)C1=O (stereo partly drawn) [Example 74, (3R)-3-(2-(3-(2-chloro-3,4-dihydroxybenzamido)-4-hydroxyphenyl)-2-(4-ethyl-2,3-dioxopiperazine-1-carboxamido)acetamido)-2-hydroxy-3,4-dihydro-2H-benzo[e][1,2]oxaborinine-8-carboxylic acid]
- MIC (P. aeruginosa CDC-0110): 2 to 4 µg/mL (≈ 2.82 to 5.63 µM)
- EC50 (A. baumannii PBP1a): 30 to 100 µM
- MIC [1]: 32 to 64 µg/mL (≈ 45.1 to 90.2 µM)

Structure (SMILES): CC(C)(C)[C@@H](NC(=O)N1CCN(CCNC(=O)c2c(F)cc(O)c(O)c2Cl)C(=O)C1=O)C(=O)N[C@H]1Cc2ccc(F)c(C(=O)O)c2OB1O [Example 80, (R)-3-((R)-2-(4-(2-(2-chloro-6-fluoro-3,4-dihydroxybenzamido)ethyl)-2,3-dioxopiperazine-1-carboxamido)-3,3-dimethylbutanamido)-7-fluoro-2-hydroxy-3,4-dihydro-2H-benzo[e][1,2]oxaborinine-8-carboxylic acid]
- MIC (P. aeruginosa CDC-0110): 0.5 to 1 µg/mL (≈ 0.704 to 1.41 µM)
- MIC [1]: 8 to 16 µg/mL (≈ 11.3 to 22.5 µM)
